Measurements as given in patent US20090047223A1, “Improvements in or Related to Organic Compoounds” (GIVAUDAN SA, priority 2005, published 2009).
Structures can show the parent of a compound that is named as a salt. Where two headings read alike, the source gives them in different places.

Tests used:
[1] = Reduction of methanethiol (MeSH) in headspace, phosphate buffer pH 7, GC; settings: for reactivity towards MeSH / ability to bind MeSH (in words): aqueous environment; for % reduction of MeSH in the headspace: MeSH 100 μM, phosphate buffer pH 7, 1 h
Experimental: (§1) The compounds listed in Table 1 are dissolved to a final concentration of 100 μM, 200 μM and 500 μM in 1 ml of phosphate buffer at pH 7 in a closed GC-headspace vial. MeSH is added to a final concentration of 100 μM and the mixture is equilibrated for 1 h. Samples are heated to 75° C. and 1 ml of the headspace above the reaction mixture is injected onto a column suitable for separation of sulphur compounds (SPW1-sulfur, Supelco). The temperature program is set to 1 min initial temperature at 50° C., heating at a rate of 10° C./min to 100° C. and further heating at 20° C./min to 200° C. The headspace level of MeSH is compared to a blank sample, i.e. a sample without the active compound.

[2] = Reduction of allyl mercaptan, monobromobimane fluorescence; settings: 200 μM allyl mercaptan-solution, pH 7, 15 min
Experimental: The compounds given in Table 2 are dissolved in DMSO to a final concentration of 100 mM and serially diluted in the same solvent. Aliquots of the solutions of different active compounds (2.5 μl) are distributed to individual wells of a microtiter plate. 100 μl of a 200 μM allyl mercaptan-solution (in 50 mM phosphate buffer, pH 7) are added to each well and the plates are immediately sealed. After 15 min of incubation, the unreacted allyl mercaptan is derivatised by adding to each well of the microtiter plate 100 μl of a monobromobimane (obtained from Fluka, Buchs, Switzerland) stock solution (0.5 mM in 1 M NaCO3, pH 8.8). After 10 min the fluorescence in the wells of the microtiter plates is measured on a Flex-station (Molecular devices, Sunnyvale, Calif., USA) with an excitation wavelength of 385 nm and an emission wavelength of 480 nm. After the fluorescence determination, from all the wells the blank value containing only buffer and DMSO is subtracted. The fluorescence of control wells with allyl mercaptan and DMSO only is then compared to the fluorescence in wells containing potential allyl mercaptan trapping agents (compound 1 to 5) to calculate the inhibition in percent.

[3] = Reduction of methanethiol (MeSH) in saliva, headspace GC; settings: compound 500 μM, MeSH 200 μM
Experimental: as §1
The compounds given in Table 3 are dissolved in GC-headspace vials in saliva donations pooled form four donors at a concentration of 500 μM. After a conditioning period of 1 and 2.5 h respectively, MeSH is added at a concentration of 200 μM, and 1 hour later MeSH level in the headspace is determined as described in Example 8.

[4] = 500 μM, pH 7
Experimental: Samples of 0.50 ml are withdrawn at the indicated time intervals and extracted with MTBE (0.50 ml). The amount of released ethyl vanillin is determined by quantitative GC-analysis.

[5] = after 2½ h conditioning in pooled saliva
[6] = after 1 h conditioning in pooled saliva

Row | Structure (SMILES) | reactivity towards MeSH / ability to bind MeSH (in words) [1] | % reduction of MeSH in the headspace ([1]; compound 100 μM) [%] | % reduction of MeSH in the headspace ([1]; compound 200 μM) [%] | % reduction of MeSH in the headspace ([1]; compound 500 μM) [%] | % reduction of allyl mercaptan ([2]; test concentration 31.25 μM) [%] | % reduction of allyl mercaptan ([2]; test concentration 62.5 μM) [%] | % reduction of allyl mercaptan ([2]; test concentration 125 μM) [%] | % reduction of allyl mercaptan ([2]; test concentration 250 μM) [%] | % reduction of allyl mercaptan ([2]; test concentration 500 μM) [%] | % reduction of allyl mercaptan ([2]; test concentration 1000 μM) [%] | Reduction of MeSH (%) [3, 5] [%] | Reduction of MeSH (%) [3, 6] [%] | % of theory (released ethyl vanillin) ([4]; 30 min) [%] | conc. of released ethy vanillin ([4]; 30 min) [µM] | % of theory (released ethyl vanillin) ([4]; 60 min) [%] | conc. of released ethy vanillin ([4]; 60 min) [µM] | % of theory (released ethyl vanillin) ([4]; 120 min) [%] | conc. of released ethy vanillin ([4]; 120 min) [µM]
1 | CC1CCC(C(C)C)C(OC(=O)/C=C/C(=O)O)C1 (stereo not shown) [B, reference compound] | low reactivity | 11.9 | 1.7 | 0 | – | – | – | – | – | – | – | – | – | – | – | – | – | –
2 | CC1CCC(C(C)C)C(OC(=O)/C=C/C(=O)OCC(O)CO)C1 (stereo not shown) [Compound 1, 2,3-Dihydroxypropyl 2-isopropyl-5-methylcyclohexyl fumarate] | – | 81.5 | 73.7 | >90 | 0.1 | 9.9 | 22.5 | 43.2 | 68.8 | 86.0 | 40.5 | 72.7 | – | – | – | – | – | –
3 | CCOC(=O)/C=C/C(=O)Oc1c(C)occc1=O [Compound 2, Ethyl 2-methyl-4-oxo-4H-pyran-3-yl fumarate] | – | >92 | >92 | >90 | 11.1 | 31.9 | 65.3 | 98.4 | 100.0 | 100.0 | 32.5 | 75.9 | – | – | – | – | – | –
4 | CCOC(=O)/C=C/C(=O)Oc1ccc(C=O)cc1OCC [Compound 3, 2-Ethoxy-4-formylphenyl ethyl fumarate] | – | >90 | >92 | >90 | 12.8 | 32.7 | 74.5 | 99.8 | 100.0 | 100.0 | 73.3 | 36.2 | 38 | 192 | 47 | 235 | 62 | 310
5 | CCOC(=O)/C=C/C(=O)Oc1ccccc1C(=O)OC [Compound 4, Methyl 2-((E)-3-(ethoxycarbonyl)acryloyloxy)benzoate] | – | >90 | >92 | >90 | 14.4 | 32.3 | 67.6 | 95.3 | 99.8 | 100.0 | 74.3 | 28.1 | – | – | – | – | – | –
6 | CC1CCC(C(C)C)C(OC(=O)/C=C/C(=O)OCC(O)C(O)C(O)C(O)CO)C1 (stereo not shown) [Compound 5, 2,3,4,5,6-Pentahydroxyhexyl 2-isopropyl-5-methylcyclohexyl fumarate] | – | 71.6 | – | >90 | 1.0 | 8.1 | 19.3 | 38.4 | 64.4 | 89.3 | 75.1 | 48.2 | – | – | – | – | – | –
7 | CCOC(=O)/C=C/C(=O)OCC=Cc1ccccc1 [Compound 6, Cinnamyl Ethyl Fumarate] | – | 45.8 | – | 85 | – | – | – | – | – | – | – | – | – | – | – | – | – | –
8 | CC/C=C\CCOC(=O)/C=C/C(=O)OCC [Compound 7, Ethyl (Z)-hex-3-enyl fumarate] | – | 33 | 39.2 | 54.1 | – | – | – | – | – | – | – | – | – | – | – | – | – | –
9 | CCCCCCOC(=O)/C=C/C(=O)OCCCCCC [Dihexyl fumarate (A), Dihexyl fumarate, reference compound] | very low reactivity | 4.3 | 1.9 | 10.9 | – | – | – | – | – | – | – | – | – | – | – | – | – | –
